Source: US20130040882A1, “USE OF FIBROBLAST GROWTH FACTOR FRAGMENTS” (NOVARTIS AG, priority 2003, published 2013)

Tested on: uterine gene expression
Experiment: Gene expression profiling (HGU133A) in the uterus of ovariectomized monkeys treated with estradiol, tamoxifen or raloxifene
Type: in vivo, cynomolgus monkeys (Macaca fascicularis)
Conditions: uterus, OVX monkeys

Compound: O=C(c1ccc(OCCN2CCCCC2)cc1)c1c(-c2ccc(O)cc2)sc2cc(O)ccc12 [raloxifene]
- Fold change relative to SHAM control: Fibulin 1: 0.8 fold
- Fold change relative to SHAM control: G1 to S phase transition 1: 0.7 fold
- Fold change relative to SHAM control: Growth associated protein 43: 0.7 fold
- Fold change relative to SHAM control: H2A histone family, member Y: 0.8 fold
- Fold change relative to SHAM control: Heparan sulfate proteoglycan 2 (perlecan): 0.6 fold
- Fold change relative to SHAM control: Histone H2A.F/Z variant: 1.0 fold
- Fold change relative to SHAM control: Insulin-like growth factor binding protein 2, 36 kda: 0.7 fold
- Fold change relative to SHAM control: Insulin-like growth factor binding protein 5: 1.1 fold
- Fold change relative to SHAM control: Intercrine-alpha, mrna sequence: 0.8 fold
- Fold change relative to SHAM control: Laminin, beta 1: 0.8 fold
- Fold change relative to SHAM control: Latent transforming growth factor beta binding protein 1: 0.8 fold
- Fold change relative to SHAM control: Matrix metalloproteinase 19: 0.2 fold
- Fold change relative to SHAM control: Nidogen (enactin): 1.7 fold
- Fold change relative to SHAM control: Osteoglycin (osteoinductive factor, mimecan): 0.7 fold
- Fold change relative to SHAM control: Peroxiredoxin 1: 0.8 fold
- Fold change relative to SHAM control: Pituitary tumour-transforming 1 interacting protein: 0.7 fold
- Fold change relative to SHAM control: Procollagen C-endopeptidase enhancer: 0.8 fold
- Fold change relative to SHAM control: Procollagen-proline, 2-oxoglutarate 4-dioxygenase (proline 4-hydroxylase), alpha polypeptide II: 0.8 fold
- Fold change relative to SHAM control: SET domain, bifurcated 1: 0.8 fold
- Fold change relative to SHAM control: SPARC-like 1 (mast9, hevin): 1.1 fold
- Fold change relative to SHAM control: Secreted protein, acidic, cysteine-rich (osteonectin): 0.8 fold
- Fold change relative to SHAM control: Serine (or cysteine) proteinase inhibitor, clade H (heat shock protein 47), member 1, (collagen binding protein 1): 0.7 fold
- Fold change relative to SHAM control: Solute carrier family 22 (organic cation transporter), member 1-like: 0.8 fold
- Fold change relative to SHAM control: Solute carrier family 25 (mitochondrial carrier; adenine nucleotide translocator), member 5: 0.8 fold
- Fold change relative to SHAM control: Stem cell growth factor; lymphocyte secreted C-type lectin: 0.7 fold
- Fold change relative to SHAM control: Tenascin C (hexabrachion): 0.8 fold
- Fold change relative to SHAM control: Testis Enhanced Gene Transcript (Bax Inhibitor 1): 1.1 fold
- Fold change relative to SHAM control: Thioredoxin interacting protein: 1.7 fold
- Fold change relative to SHAM control: Transforming growth factor, beta-induced, 68 kda: 0.8 fold
- Fold change relative to SHAM control: Ubiquinol-cytochrome c reductase, Rieske iron-sulfur polypeptide 1: 0.8 fold
- Fold change relative to OVX: Insulin receptor (Table 46): 0.9 fold
- Fold change relative to OVX: Insulin receptor (Table 51): 0.9 fold
- Fold change relative to SHAM control: Insulin receptor (Table 51): 1.4 fold
- Fold change relative to OVX: Fibronectin 1 (entry with OVX average 39): 2.3 fold
- Fold change relative to OVX: Bone morphogenetic protein 1 (entry with OVX average 79): 1.2 fold
- Fold change relative to OVX: Bone morphogenetic protein 1 (entry with OVX average 93): 1.4 fold
- Fold change relative to OVX: Insulin-like growth factor 1 (somatomedin C) (entry with OVX average 102): 1.5 fold
- Fold change relative to OVX: Fibrillin 1 (Marfan syndrome) (entry with OVX average 124): 2.1 fold
- Fold change relative to OVX: Collagen, type I, alpha 2 (entry with OVX average 154): 3.2 fold
- Fold change relative to OVX: Insulin-like growth factor 1 (somatomedin C) (entry with OVX average 156): 2.2 fold
- Fold change relative to OVX: Solute carrier family 2 (facilitated glucose/fructose transporter), member 5 (entry with OVX average 171): 1.2 fold
- Fold change relative to OVX: Solute carrier family 2 (facilitated glucose/fructose transporter), member 5 (entry with OVX average 176): 1.0 fold
- Fold change relative to OVX: Collagen, type IV, alpha 1 (entry with OVX average 182): 1.8 fold
- Fold change relative to OVX: Cyclin-dependent kinase inhibitor 1C (p57, Kip2) (entry with OVX average 224): 0.9 fold
- Fold change relative to OVX: Insulin-like growth factor 1 (somatomedin C) (entry with OVX average 310): 2.3 fold
- Fold change relative to OVX: Fibronectin 1 (entry with OVX average 419): 2.2 fold
- Fold change relative to OVX: Cyclin-dependent kinase inhibitor 1C (p57, Kip2) (entry with OVX average 527): 1.2 fold
- Fold change relative to OVX: Fibronectin 1 (entry with OVX average 586): 2.2 fold
- Fold change relative to OVX: Fibronectin 1 (entry with OVX average 648): 1.7 fold
- Fold change relative to OVX: Collagen, type IV, alpha 1 (entry with OVX average 690): 1.2 fold
- Fold change relative to OVX: Fibronectin 1 (entry with OVX average 757): 1.9 fold
- Fold change relative to OVX: Cyclin-dependent kinase inhibitor 1C (p57, Kip2) (entry with OVX average 762): 1.1 fold
- Fold change relative to OVX: ATP synthase, H+ transporting, mitochondrial F0 complex, subunit c (subunit 9) isoform 3 (entry with OVX average 811): 1.2 fold
- Fold change relative to OVX: Fibrillin 1 (Marfan syndrome) (entry with OVX average 874): 1.5 fold
- Fold change relative to OVX: ATP synthase, H+ transporting, mitochondrial F0 complex, subunit c (subunit 9) isoform 3 (entry with OVX average 1007): 1.2 fold
- Fold change relative to OVX: Collagen, type III, alpha 1 (Ehlers-Danlos syndrome type IV, autosomal dominant) (entry with OVX average 1084): 1.9 fold
- Fold change relative to OVX: Collagen, type I, alpha 2 (entry with OVX average 2757): 2.2 fold
- Fold change relative to OVX: Collagen, type III, alpha 1 (Ehlers-Danlos syndrome type IV, autosomal dominant) (entry with OVX average 3445): 2.0 fold
- Fold change relative to OVX: H3 histone, family 3A (entry with OVX average 9495): 0.9 fold
- Fold change relative to OVX: H3 histone, family 3A (entry with OVX average 9692): 1.0 fold
- Fold change relative to SHAM control: Fibronectin 1 (entry with SHAM average 100): 0.9 fold
- Fold change relative to SHAM control: Bone morphogenetic protein 1 (entry with SHAM average 143): 0.7 fold
- Fold change relative to SHAM control: Cyclin-dependent kinase inhibitor 1C (p57, Kip2) (entry with SHAM average 201): 1.0 fold
- Fold change relative to SHAM control: Bone morphogenetic protein 1 (entry with SHAM average 205): 0.6 fold
- Fold change relative to SHAM control: Insulin-like growth factor 1 (somatomedin C) (entry with SHAM average 226): 0.7 fold
- Fold change relative to SHAM control: Fibrillin 1 (Marfan syndrome) (entry with SHAM average 236): 1.1 fold
- Fold change relative to SHAM control: Solute carrier family 2 (facilitated glucose/fructose transporter), member 5 (entry with SHAM average 291): 0.6 fold
- Fold change relative to SHAM control: Solute carrier family 2 (facilitated glucose/fructose transporter), member 5 (entry with SHAM average 317): 0.7 fold
- Fold change relative to SHAM control: Insulin-like growth factor 1 (somatomedin C) (entry with SHAM average 417): 0.8 fold
- Fold change relative to SHAM control: Collagen, type IV, alpha 1 (entry with SHAM average 436): 0.7 fold
- Fold change relative to SHAM control: Cyclin-dependent kinase inhibitor 1C (p57, Kip2) (entry with SHAM average 459): 1.4 fold
- Fold change relative to SHAM control: Collagen, type I, alpha 2 (entry with SHAM average 493): 1.0 fold
- Fold change relative to SHAM control: Insulin-like growth factor 1 (somatomedin C) (entry with SHAM average 581): 1.2 fold
- Fold change relative to SHAM control: Cyclin-dependent kinase inhibitor 1C (p57, Kip2) (entry with SHAM average 660): 1.3 fold
- Fold change relative to SHAM control: Fibronectin 1 (entry with SHAM average 920): 1.0 fold
- Fold change relative to SHAM control: ATP synthase, H+ transporting, mitochondrial F0 complex, subunit c (subunit 9) isoform 3 (entry with SHAM average 1045): 0.9 fold
- Fold change relative to SHAM control: Fibronectin 1 (entry with SHAM average 1089): 1.2 fold
- Fold change relative to SHAM control: Collagen, type IV, alpha 1 (entry with SHAM average 1143): 0.7 fold
- Fold change relative to SHAM control: Fibronectin 1 (entry with SHAM average 1288): 0.9 fold
- Fold change relative to SHAM control: Fibronectin 1 (entry with SHAM average 1301): 1.1 fold
- Fold change relative to SHAM control: ATP synthase, H+ transporting, mitochondrial F0 complex, subunit c (subunit 9) isoform 3 (entry with SHAM average 1355): 0.9 fold
- Fold change relative to SHAM control: Fibrillin 1 (Marfan syndrome) (entry with SHAM average 1388): 1.0 fold
- Fold change relative to SHAM control: Collagen, type III, alpha 1 (Ehlers-Danlos syndrome type IV, autosomal dominant) (entry with SHAM average 2992): 0.7 fold
- Fold change relative to SHAM control: Collagen, type III, alpha 1 (Ehlers-Danlos syndrome type IV, autosomal dominant) (entry with SHAM average 7354): 1.0 fold
- Fold change relative to SHAM control: Collagen, type I, alpha 2 (entry with SHAM average 7758): 0.8 fold
- Fold change relative to SHAM control: H3 histone, family 3A (entry with SHAM average 9408): 0.9 fold
- Fold change relative to SHAM control: H3 histone, family 3A (entry with SHAM average 10239): 1.0 fold
